Measured values from US6303596A, “Use of taurolidine for treatment of leukemias” (priority 2000, dated 2001).

Columns and labels:
Type in all cases: cell-based, human
tissue factor (TF) = experiment: LPS-induced tissue factor (TF) expression in PBMC, ELISA
Method: FIG. 2A represents MM6 cells; FIG. 2B represents PBMC. The cells were induced with LPS (hatched bars: 100 ng/ml LPS in RPMI supplemented with 10% BCS (RPMI+10% BCS); solid bars: 10 ng/ml in AIM-V+0.01% BCS) in the presence of varying concentrations of taurolidine,or with a dilution of the vehicle equivalent to that given to cells receiving 100 μg/ml taurolidine. After four hours, cells were collected and lysates were prepared for TF ELISA. Data are expressed as percent of TF antigen measured in cells treated with LPS alone (no taurolidine or vehicle). Experiments were performed with duplicate samples and were repeated at least three times. Values shown are mean±SEM of all experiments.
For induction of TF or TNFα expression, MM6 cells or PBMC were cultured either in RPMI supplemented with 10% BCS or in AIM-V+0.01% BCS, and stimulated by adding LPS to final concentrations of 10 to 100 ng/ml. […] Except as noted, taurolidine and LPS were added to the cell cultures simultaneously. For TF determination, cells and culture media together were treated by adding Triton X-100 (1% final) and EDTA (7 mmol/L final), and the resulting lysates assayed by ELISA. […] For TNFα determination, cells were removed by centrifugation for 5 min at 250×g, and the supernatants were assayed by ELISA.

HL-60 [1] = experiment: TUNEL / propidium iodide flow cytometry, HL-60; settings: for % TUNEL-positive: HL-60, taurolidine 100 μg/ml or anisomycin 1 μg/ml for 4 h, assayed at 6 hours, mean ± SD
Method: In the second method, DNA fragmentation was detected via TUNEL assay according to the manufacturer's instructions. With this methodology, 2×10^6 cells were fixed with 2% paraformaldehyde, permeabilized with 0.1% Triton X-100/0.1% citrate, incubated at 37° C. with terminal deoxynucleotidyl transferase and FITC-dUTP, rinsed and analyzed by flow cytometry. Enhanced FITC signal indicates apoptosis-specific DNA fragmentation. Gavriali, et al, "Identification of programmed cell death in situ via specific labeling of nuclear DNA fragmentation," J Cell Biol 119:493 (1992). Parallel aliquots of unfixed cells were treated with PI and FITC-conjugated anti-CD14 and analyzed by flow cytometry, in order to identify cells with permeable cell membranes (since PI binds to DNA but is excluded from cells with intact plasma membranes) and also to determine the cell-specificity of the apoptotic signal.
Consequently, TUNEL analysis was performed on PBMC at 3, 6, or 24 hours after treatment with 25 to 100 μg/ml taurolidine. Aliquots of harvested cells were also labeled with FITC-conjugated anti-CD14 antibodies and PI, which allowed identification of monocytes (CD14-positive cells) and cells with damaged cell membranes (PI-positive cells). […] Thus, nearly 75% of the monocytes were TUNEL-positive following treatment with 100 μg/ml taurolidine for six hours. Confirmation that the TUNEL-positive cells were monocytes was obtained by staining with FITC-conjugated anti-CD14.
In another study, TUNEL assays were performed on all cell lines 6 hours after cells were initially exposed to taurolidine (cells were treated for 4 hours, rinsed, and then incubated for 2 more hours before TUNEL assay was performed).
. Taurolidine and anisomycin induced apoptosis in MM6, HL-60, and Jurkat cells (Table VIII). MM6 and HL-60 cells were similarly effected, with >80% TUNEL-positive cells after 6 hours. Jurkat cells were less sensitive, with approximately 50% of cells induced to undergo apoptosis after taurolidine treatment. After 6 hours, 73% of anisomycin-treated REH cells were apoptotic, with less than 20% of taurolidine-treated REH cells being TUNEL-positive. However, assay of cells 24 hours after
^a Analysis by flow cytometry after staining cells with propidium
iodide and processing for TUNEL.
Data are percent of total cell-size events, and are expressed as mean ±
Cells were treated for 4 hours with taurolidine (100 μg/ml) or
anisomycin (1 μg/ml), and then assayed at 6 hours.

HL-60 [2] = experiment: LDH release (cell membrane integrity), HL-60
Method: FIGS. 7A and 7B depict cell viability and growth rates for HL-60 cell line following taurolidine treatment, in terms of % trypan blue negative cells and % cell number, respectively. Cells were treated with various concentrations of taurolidine for 4 hours in AIM-V+0.01% BCS. After aliquots were collected for LDH assay, the remainder of the culture was rinsed in HBSS and resuspended in RPMI+10% BCS without taurolidine. Counts of trypan blue-negative cells (FIG. 7A), and total cell number (FIG. 7B), were recorded daily thereafter (with the measurement at Day 1 being made immediately after the 4 hour taurolidine treatment). Conditions were: no treatment (open circles); 25 μg/ml taurolidine (closed circles); 50 μg/ml taurolidine (open squares); 100 μg/ml taurolidine (closed squares); and vehicle alone (closed triangles). Doubling times were determined under each condition, and expressed as a percentage of the rate of doubling of untreated cells. These values are located to the right of the growth curves in (FIG. 7B). Cells were subcultured when they reached a concentration of 6×10^5 cells/ml. Data are mean±SEM of three experiments.
In these experiments, integrity of cell membranes following taurolidine treatment was assessed by exclusion of trypan blue and by measuring the release of LDH in MM6, K-562, HL-60, and REH cells. Since BCS contains significant amounts of LDH, these experiments were conducted on cells cultured in AIM-V+0.01% BCS. Four hour treatment of cells was conducted in AIM-V containing 0.01% BCS in order to allow subsequent LDH assay without interference from BCS (which occurs in when normal culture medium, containing 10% BCS, is used). Thus, MM6 cells (5×10^5 cells/ml) were treated with taurolidine for four hours in AIM-V+0.01% BCS, after which an aliquot of the cell suspension was removed for measurement of LDH release. A parallel aliquot of cells was lysed by three cycles of freeze/thaw and the quantity of LDH released was taken to be 100%. […]
^a LDH was measured immediately after four hour taurolidine treatment.

## O=S1(=O)CCN(CN2CCS(=O)(=O)NC2)CN1 [taurolidine, 4,4'-methylenebis(perhydro-1,2,4-thiadiazin 1,1-dioxide)]
Tissue factor (TF); PBMC, taurolidine 75 μg/ml, 4 h
  inhibition of LPS-induced TF expression: complete inhibition of TF expression
Tissue factor (TF); peripheral blood monocytes or cultured MM6 cells
  induction of TF in response to LPS (summary): strongly inhibited the induction of TF
HL-60 [1]; HL-60, 50 μg/ml, 3 hours
  % TUNEL-Negative Cells: 35%
HL-60 [1]
  % TUNEL-positive: 91.9 ± 10.9%
HL-60 [1]; listed as Taurolidine
  % TUNEL-positive: > 80%
HL-60 [1]; Homo sapiens, HL-60, 3 h, read-out: % Propidium Iodide Positive Cells
  cytotoxicity at 50 µg/mL: 5%
HL-60 [2]; HL-60, control 2.3±0.8%, 240 min
  LDH in culture medium, % of that released by completely lysed cells: 8.3±2.3%
HL-60 [2]; Homo sapiens, HL-60, 50 μg/ml, 4 h, read-out: LDH (% of total)
  cytotoxicity at 50 µg/mL: 5%
HL-60 [2]; Homo sapiens, HL-60, 100 μg/ml, 4 h, read-out: LDH (% of total)
  cytotoxicity at 100 µg/mL: 6%
